In patent publication US7790731B2 (Banyu Pharmaceutical Co. Ltd., priority 2005, dated 2010):

Experiments:
male SD rats = assay: Intracerebral histamine release promotion test; assay type: in vivo; conditions: 30 mg/kg orally, Pargyline-treated male SD rats, 2 hours after administration
Method: A histamine 3 receptor antagonist or inverse-agonist is reported to promote histamine release at the nerve end presynaptic region in a brain. For the purpose of investigating the effect of the medicine of the invention on these, a test compound suspended in an aqueous 0.5% methyl cellulose solution was orally administered to male SD rats (7 to 10-week age, 200 to 300 g) treated with a monoamine oxidase inhibitor (Pargyline). 2 hours after the medicine administration, the rats were killed in euthanasia, and the brain tissue was rapidly taken out. According to a Miyamoto et al's method, the concentration of histamine and its main metabolite, tele-methylhistamine in the brain tissue was measured [see Analytical Biochemistry, Vol. 334, p. 89 (2004)].

[1] = Thermal and light stability compared with the amorphous compound; assay type: physicochemical; conditions: as compared with amorphous compound

light stability [1]: excellent
thermal stability [1]: excellent
SMILES: Cc1nc2cccc(C(F)(F)F)c2c(=O)n1-c1ccc(OCCCN2CCCC2)cc1 [form I crystal, 2-methyl-3-{4-[3-(1-pyrrolidinyl)propoxy]phenyl}-5-trifluoromethyl-4(3H)-quinazolinone]
brain tele-methylhistamine level (male SD rats): significantly increased
